From patent US20060172423A1, “New expression system from rhodococcus” (priority 2002, published 2006)
Where two headings read alike, the source gives them in different places.

Tests used:
[1] = tested on: repressor-promoter system of the KstD gene; assay: steroid induction of KSTD activity in cell free extracts (DCPIP as electron acceptor, AD as substrate), SQ1; type: cell-based, Rhodococcus erythropolis SQ1
Description: 4-androstene-3,17-dione (AD) induction served as a positive control.
From induced cultures, cell free extracts were prepared as indicated above and tested for KSTD activity using DCPIP as an electron acceptor and AD as a substrate.
(§1) Further, it was investigated whether KSTD1 was constitutively expressed in R. erythropolis RG10. Cell free extracts were prepared from an AD-induced cell culture and from a non-induced cell culture. These extracts were tested for KSTD activity using DCPIP as an electron acceptor and AD as a substrate. For reasons of comparison, the same procedure was performed with R. erythropolis SQ1.

[2] = tested on: KSTD activity; assay: KSTD activity in cell free extracts (DCPIP as electron acceptor, AD as substrate), RG10; type: cell-based, Rhodococcus erythropolis RG10; conditions: cell free extract of AD-induced culture
Description: as §1

[3] = tested on: KSTD activity; conditions: gene disruption mutant SDH420; cited from earlier work

| SMILES | lifting of kstD promoter repression exerted by the kstR gene product ([1]; addition of steroid compound) | other results |
| --- | --- | --- |
| C[C@@H]1CC2=CC(=O)CC[C@@H]2[C@H]2CC[C@]3(C)C(=O)CC[C@H]3[C@@H]21 [7α-methyl-nordione] | able to lift kstD promotor repression |  |
| C[C@]12CCC(=O)C=C1CC[C@H]1[C@@H]3CCC(=O)[C@@]3(C)CC[C@@]12O [9OHAD, 9α-hydroxy-4-androstene-3,17-dione] |  | lifting of kstD promoter repression exerted by the kstR gene product [1]: able to lift kstD promotor repression |
| C=C1C[C@]2(C)C(=O)CC[C@H]2[C@@H]2CCC3=CC(=O)CC[C@@H]3[C@@H]12 [11-methylene-nordione] | able to lift kstD promotor repression |  |
| C[C@]12CC[C@H]3C(=CCC4=CC(=O)CC[C@@]43CO)[C@@H]1CCC2=O [19-OH-7-dehydro-androstene-3,17-dione] | able to lift kstD promotor repression |  |
| C[C@]12CCC(=O)C=C1CC[C@@H]1[C@@H]2CC[C@]2(C)C(=O)CC[C@@H]12 [AD, 4-androstene-3,17-dione] | able to lift kstD promotor repression | induction of KSTD activity in R. erythropolis SQ1 ([1]; cell free extracts of induced cultures, DCPIP electron acceptor, AD substrate): detected; KSTD activity in R. erythropolis RG10 [2]: present; induction of wild-type KSTD activity in R. erythropolis SDH420 [3]: can be induced |
| C[C@]12C=CC(=O)C=C1CC[C@@H]1[C@@H]2CC[C@]2(C)C(=O)CC[C@@H]12 [ADD, 1,4-androstadiene-3,17-dione] | able to lift kstD promotor repression |  |
| C[C@]12CC[C@H]3[C@@H](CCC4=CC(=O)CC[C@@H]43)[C@@H]1CCC2=O [estr-4-ene-3,17-dione] | able to lift kstD promotor repression |  |
| CC(=O)[C@H]1CC[C@H]2[C@@H]3CC=C4C[C@@H](O)CC[C@]4(C)[C@H]3CC[C@]12C [pregnenolone] | able to lift kstD promotor repression |  |
| CC(=O)[C@H]1CC[C@H]2[C@@H]3CCC4=CC(=O)CC[C@]4(C)[C@H]3CC[C@]12C [progesterone] | able to lift kstD promotor repression |  |
| C[C@]12CCC(=O)C[C@@H]1CC[C@@H]1[C@@H]2CC[C@]2(C)[C@@H](O)CC[C@@H]12 [stanolone, 17β-OH-5α-androstane-3-on] |  | lifting of kstD promoter repression exerted by the kstR gene product [1]: able to lift kstD promotor repression |
| C[C@]12CC[C@H]3[C@@H](CCC4=CC(=O)CC[C@@]43C)[C@@H]1CC[C@@H]2O [testosterone] |  | lifting of kstD promoter repression exerted by the kstR gene product [1]: able to lift kstD promotor repression |
